Tested on: anesthetized rats
Experiment: Blood pressure and left ventricular function of anesthetized rats
Assay type: in vivo, rat
Design: contractive pressure, change ratio: unit not given here
Experimental: All data were input into PowerLab/8Sp data acquisition and processing system via RM-6000 multi-channel polygraph, and recorded, analyzed and processed by PowerLab/8Sp.
The abdomen was opened 1.5 cm below xiphoid bone to isolate duodenum, a small incision was formed on the duodenum away from blood vessels by ophthalmic scissors, a catheter was inserted and the incision was fixed by suture for administration. After the end of operation and a further waiting period of 30 min, normal data were recorded once the indexes to be monitored were stable.
Test drugs were duodenally administered via the catheter, and the indexes were monitored 5, 15, 30, 60, 90 and 120 min after the administration. The change ratios of the indexes were calculated in accordance with the following formula, and were used for statistic analysis among groups.

[1] = 9 mg/kg duodenal, 60 min after administration
[2] = 9 mg/kg duodenal, 90 min after administration
[3] = 9 mg/kg duodenal, 120 min after administration
[4] = 9 mg/kg duodenal, before administration
[5] = 18 mg/kg duodenal, 5 min after administration
[6] = 18 mg/kg duodenal, 15 min after administration
[7] = 18 mg/kg duodenal, 30 min after administration
[8] = 18 mg/kg duodenal, 60 min after administration
[9] = 18 mg/kg duodenal, 90 min after administration
[10] = 18 mg/kg duodenal, 120 min after administration
[11] = 18 mg/kg duodenal, before administration
[12] = 18 mg/kg, significant at 15, 30, 60, 90 and 120 min

## CC1(C)C2CCC1(C)C(OC(=O)C(O)Cc1ccc(O)c(O)c1)C2 (stereo not drawn) [bornyl salvianate ester, bornyl β-(3,4-dihydroxylphenyl)-α-hydroxylpropionate ester]
[1]
  contractive pressure, change ratio: −12.63 ± 11.39
  diastolic pressure: 59.10 ± 16.07 mmHg
  diastolic pressure, change ratio: −14.30 ± 13.75
  heart rate: 359.61 ± 39.30 beat/min
  heart rate, change ratio: −4.52 ± 7.13
  left intraventricular pressure: 119.77 ± 23.09 mmHg
  left intraventricular pressure, change ratio: −6.84 ± 8.75
  mean arterial pressure: 77.89 ± 18.11 mmHg
  mean arterial pressure, change ratio: −13.46 ± 12.43
[2]
  change-rate of left intraventricular pressure MAX: 5113.5 ± 1356.4 mmHg/s
  change-rate of left intraventricular pressure MAX, change ratio: −6.4 ± 13.2
  change-rate of left intraventricular pressure, -MAX: −3629.7 ± 1013.3 mm/Hg/s
  change-rate of left intraventricular pressure, -MAX, change ratio: −7.2 ± 13.3
  contractive pressure: 120.90 ± 31.83 mmHg
  contractive pressure, change ratio: −8.80 ± 16.65
  diastolic pressure: 63.12 ± 19.81 mmHg
  diastolic pressure, change ratio: −8.83 ± 17.11
  heart rate: 354.38 ± 62.30 beat/min
  heart rate, change ratio: −4.13 ± 17.94
  left intraventricular pressure: 122.40 ± 26.58 mmHg
  left intraventricular pressure, change ratio: −4.88 ± 11.37
  mean arterial pressure: 82.38 ± 23.18 mmHg
  mean arterial pressure, change ratio: −8.77 ± 16.66
[3]
  change-rate of left intraventricular pressure MAX: 4959.8 ± 1399.0 mmHg/s
  change-rate of left intraventricular pressure MAX, change ratio: −9.7 ± 11.2
  change-rate of left intraventricular pressure, -MAX: −3541.7 ± 917.7 mm/Hg/s
  change-rate of left intraventricular pressure, -MAX, change ratio: −9.2 ± 11.3
  contractive pressure: 120.85 ± 32.13 mmHg
  contractive pressure, change ratio: −9.19 ± 14.65
  diastolic pressure: 62.58 ± 22.20 mmHg
  diastolic pressure, change ratio: −10.28 ± 17.60
  heart rate: 354.09 ± 47.98 beat/min
  heart rate, change ratio: −4.62 ± 12.34
  left intraventricular pressure: 121.85 ± 26.36 mmHg
  left intraventricular pressure, change ratio: −5.47 ± 9.76
  mean arterial pressure: 82.00 ± 25.04 mmHg
  mean arterial pressure, change ratio: −9.71 ± 15.95
[4]
  change-rate of left intraventricular pressure MAX: 5435.8 ± 1200.0 mmHg/s
  change-rate of left intraventricular pressure, -MAX: −3881.3 ± 735.6 mm/Hg/s
  contractive pressure: 132.26 ± 20.00 mmHg
  diastolic pressure: 69.21 ± 15.19 mmHg
  heart rate: 373.43 ± 41.28 beat/min
  left intraventricular pressure: 128.29 ± 18.38 mmHg
  mean arterial pressure: 90.23 ± 16.25 mmHg
9 mg/kg, significant at 15 and 60 min
  mean arterial pressure, systolic pressure and diastolic pressure (in words): exhibited a decrease tendency
9 mg/kg, significant at 60 and 120 min
  dp/dt (in words): exhibited a decrease tendency
9 mg/kg, significant at 60 min
  left intraventricular pressure (in words): exhibited a decrease tendency
[5]
  change-rate of left intraventricular pressure MAX: 5694.7 ± 1264.7 mmHg/s
  change-rate of left intraventricular pressure MAX, change ratio: −0.3 ± 9.3
  change-rate of left intraventricular pressure, -MAX: −4103.4 ± 981.2 mm/Hg/s
  change-rate of left intraventricular pressure, -MAX, change ratio: 0.0 ± 7.8
  contractive pressure: 128.34 ± 28.96 mmHg
  contractive pressure, change ratio: −0.06 ± 12.42
  diastolic pressure: 72.55 ± 16.58 mmHg
  diastolic pressure, change ratio: −1.00 ± 14.79
  heart rate: 358.56 ± 44.88 beat/min
  heart rate, change ratio: 0.22 ± 4.94
  left intraventricular pressure: 131.90 ± 18.96 mmHg
  left intraventricular pressure, change ratio: −0.01 ± 7.29
  mean arterial pressure: 91.15 ± 20.31 mmHg
  mean arterial pressure, change ratio: −0.58 ± 13.53
[6]
  change-rate of left intraventricular pressure MAX: 5470.3 ± 1416.7 mmHg/s
  change-rate of left intraventricular pressure MAX, change ratio: −4.7 ± 11.8
  change-rate of left intraventricular pressure, -MAX: −3991.9 ± 948.6 mm/Hg/s
  change-rate of left intraventricular pressure, -MAX, change ratio: −2.4 ± 9.3
  contractive pressure: 120.90 ± 26.54 mmHg
  contractive pressure, change ratio: −5.49 ± 14.53
  diastolic pressure: 68.87 ± 14.57 mmHg
  diastolic pressure, change ratio: −5.45 ± 15.82
  heart rate: 356.00 ± 40.82 beat/min
  heart rate, change ratio: −0.07 ± 9.93
  left intraventricular pressure: 126.28 ± 18.51 mmHg
  left intraventricular pressure, change ratio: −4.15 ± 8.95
  mean arterial pressure: 86.21 ± 18.29 mmHg
  mean arterial pressure, change ratio: −5.52 ± 14.99
[7]
  change-rate of left intraventricular pressure MAX: 5186.9 ± 1177.3 mmHg/s
  change-rate of left intraventricular pressure MAX, change ratio: −8.9 ± 11.5
  change-rate of left intraventricular pressure, -MAX: −3923.8 ± 879.8 mm/Hg/s
  change-rate of left intraventricular pressure, -MAX, change ratio: −3.9 ± 8.2
  contractive pressure: 117.76 ± 22.90 mmHg
  contractive pressure, change ratio: −7.74 ± 12.22
  diastolic pressure: 66.68 ± 11.95 mmHg
  diastolic pressure, change ratio: −7.68 ± 16.90
  heart rate: 348.07 ± 39.21 beat/min
  heart rate, change ratio: −2.01 ± 12.45
  left intraventricular pressure: 124.81 ± 18.94 mmHg
  left intraventricular pressure, change ratio: −5.46 ± 7.09
  mean arterial pressure: 83.71 ± 15.31 mmHg
  mean arterial pressure, change ratio: −7.79 ± 14.45
[8]
  change-rate of left intraventricular pressure MAX: 4905.3 ± 1047.7 mmHg/s
  change-rate of left intraventricular pressure MAX, change ratio: −12.4 ± 18.7
  change-rate of left intraventricular pressure, -MAX: −3744.3 ± 851.5 mm/Hg/s
  change-rate of left intraventricular pressure, -MAX, change ratio: −7.9 ± 14.0
  contractive pressure: 106.97 ± 32.22 mmHg
  contractive pressure, change ratio: −16.34 ± 19.90
  diastolic pressure: 60.98 ± 16.13 mmHg
  diastolic pressure, change ratio: −15.66 ± 21.14
  heart rate: 357.22 ± 47.10 beat/min
  heart rate, change ratio: 0.39 ± 13.05
  left intraventricular pressure: 120.67 ± 23.43 mmHg
  left intraventricular pressure, change ratio: −8.71 ± 11.64
  mean arterial pressure: 76.31 ± 21.36 mmHg
  mean arterial pressure, change ratio: −16.01 ± 20.44
[9]
  change-rate of left intraventricular pressure MAX: 4676.5 ± 941.1 mmHg/s
  change-rate of left intraventricular pressure MAX, change ratio: −16.7 ± 15.5
  change-rate of left intraventricular pressure, -MAX: −3659.3 ± 806.3 mm/Hg/s
  change-rate of left intraventricular pressure, -MAX, change ratio: −9.2 ± 16.9
  contractive pressure: 104.23 ± 32.16 mmHg
  contractive pressure, change ratio: −18.68 ± 18.21
  diastolic pressure: 60.29 ± 15.88 mmHg
  diastolic pressure, change ratio: −16.74 ± 18.37
  heart rate: 355.33 ± 9.61 beat/min
  heart rate, change ratio: −0.44 ± 6.91
  left intraventricular pressure: 117.91 ± 22.68 mmHg
  left intraventricular pressure, change ratio: −10.81 ± 11.60
  mean arterial pressure: 74.94 ± 21.07 mmHg
  mean arterial pressure, change ratio: −17.64 ± 18.17
[10]
  change-rate of left intraventricular pressure MAX: 5012.6 ± 777.5 mmHg/s
  change-rate of left intraventricular pressure MAX, change ratio: −10.9 ± 12.4
  change-rate of left intraventricular pressure, -MAX: −3692.1 ± 863.3 mm/Hg/s
  change-rate of left intraventricular pressure, -MAX, change ratio: −8.8 ± 16.9
  contractive pressure: 113.34 ± 24.47 mmHg
  contractive pressure, change ratio: −10.88 ± 16.04
  diastolic pressure: 61.54 ± 13.73 mmHg
  diastolic pressure, change ratio: −14.64 ± 19.58
  heart rate: 357.68 ± 53.26 beat/min
  heart rate, change ratio: 0.28 ± 12.04
  left intraventricular pressure: 119.85 ± 22.26 mmHg
  left intraventricular pressure, change ratio: −9.13 ± 13.16
  mean arterial pressure: 78.81 ± 17.04 mmHg
  mean arterial pressure, change ratio: −12.96 ± 17.66
[11]
  change-rate of left intraventricular pressure MAX: 5695.0 ± 1086.8 mmHg/s
  change-rate of left intraventricular pressure, -MAX: −4092.0 ± 905.4 mm/Hg/s
  contractive pressure: 128.25 ± 23.86 mmHg
  diastolic pressure: 73.04 ± 11.87 mmHg
  heart rate: 357.28 ± 36.29 beat/min
  left intraventricular pressure: 131.93 ± 16.79 mmHg
  mean arterial pressure: 91.44 ± 15.44 mmHg
[12]
  dp/dt (in words): significantly decreased
  left intraventricular pressure (in words): significantly decreased
18 mg/kg, significant at 15, 60, 90 and 120 min
  mean arterial pressure, systolic pressure and diastolic pressure (in words): significantly decreased
